pIC50: −log10 of the molar value.
What was measured:
[1] = target: T1, Recombinant human BACE-1 (Homo sapiens, UniProt P56817); test: Assay of BACE1 inhibitory activity; assay type: biochemical; settings: Recombinant human BACE1 7.4 nmol/L, substrate peptide 18 nmol/L, pH 5.0, 30° C. for 3 hours; read-out: IC50 (50% inhibitory concentration against the enzymatic activity)
T1 construct: purchased R&D Systems
Experimental: 48.5 μL of substrate peptide solution (Biotin-XSEVNLDAEFRHDSGC-Eu: X=ε-amino-n-capronic acid, Eu=Europium cryptate) was added to each well of 96-hole half-area plate (a black plate: Costar), and after addition of 0.5 μl of the compound of the present invention (N,N′-dimethylformamide solution) and 1 μl of Recombinant human BACE-1 (R&D Systems), the reaction mixture was incubated at 30° C. for 3 hours. The substrate peptide was synthesized by reacting Cryptate TBPCOOH mono SMP (CIS bio international) with Biotin-XSEVNLDAEFRHDSGC (Peptide Institute, Inc.). The final concentrations of the substrate peptide and Recombinant human BACE1 were adjusted to 18 nmol/L and 7.4 nmol/L, respectively, and the reaction was performed in sodium acetate buffer (50 mmol/L sodium acetate, pH 5.0, 0.008% Triton X-100). After the incubation for reaction, 50 μl of 8.0 μg/ml Streptavidin-XL665 (CIS bio international) dissolved in phosphate buffer (150 mmol/L K2HPO4—KH2PO4, pH 7.0, 0.008% Triton X-100, 0.8 mol/L KF) was added to each well and left stand at 30° C. for 1 hour. After then, fluorescence intensity was measured (excitation wavelength: 320 nm, measuring wavelength: 620 nm and 665 nm) using Wallac 1420 multilabel counter (Perkin Elmer life sciences). Enzymatic activity was determined from counting ratio of each wavelength (10,000×Count 665/Count 620) and 50% inhibitory concentration against the enzymatic activity (IC50) was calculated.

[2] = tested on: Neuroblastoma SH-SY5Y cells (SH/APPwt) with human wild-type β-APP excessively expressed; test: Measurement of β-amyloid (Aβ) production inhibiting effect in cell; assay type: cell-based; settings: 24 hours incubation, Amyloid β 1-40 HTRF in culture supernatant, read-out: IC50 (amount needed to inhibit Aβ production by 50%)
Experimental: Neuroblastoma SH-SY5Y cells (SH/APPwt) with human wild-type β-APP excessively expressed therein were prepared at 8×10^5 cells/mL, and 150 μl portions thereof were inoculated into each well of a 96-well culture plate (Falcon). The cells were cultured for 2 hours at 37° C. in a 5% gaseous carbon dioxide incubator. Then, a solution which have been preliminarily prepared by adding and suspending the compound of the present invention (DMSO (dimethyl sulfoxide) solution) so as to be 2 μl/50 μl medium was added to the cell sap. Namely, the final DMSO concentration was 1%, and the amount of the cell culture was 200 μl. After the incubation was performed for 24 hours from the addition of the test compound, 100 μl of the culture supernatant was collected from each fraction. The amount of the Aβ in each fraction was measured.
The Aβ amount was measured as follows. 10 μl of a homogeneous time resolved fluorescence (HTRF) measurement reagent (Amyloid β 1-40 peptide; IBA Molecular Holding, S.A.) and 10 μl of the culture supernatant were put into a 384-well half area microplate (black microplate, Costar) and mixed with each other, and then left standing overnight at 4° C. while the light was shielded. Then, the fluorescence intensity (excitation wavelength: 337 nm, measurement wavelength: 620 nm and 665 nm) was measured with Wallac 1420 multilabel counter (Perkin Elmer life sciences). The Aβ amount was determined from the count rate at each measurement wavelength (10000×Count 665/Count 620), and the amount needed to inhibit Aβ production by 50% (IC50) was calculated from at least six different dosages.

[3] = Solubility test (turbidity, Test Example 7-1); assay type: physicochemical; settings: pH 6.8, aqueous buffer, kinetic from dmso stock; JP-II medium, 2% DMSO, turbidity after 4 hours; read-out: solubility assessed by 3 stages
Experimental: A 2-fold dilution series (12 points) of a 10 mM solution of a compound of the present invention in DMSO was added to a medium (JP-I, JP-II) (2%), and solubility was assessed by 3 stages (High; >40 μM, Medium; 3-40 Low; <3 μM) from a turbidity after 4 hours.

[4] = target: CYP3A4 (Homo sapiens, UniProt P08684); test: CYP3A4 fluorescent MBI test; assay type: in vitro ADME; parameters: host or cells: Escherichia coli; settings: 7-BFC substrate, pre-reaction 0 or 30 minutes, CYP3A4 expressed in Escherichia coli
CYP3A4, sequence (P08684 whole entry): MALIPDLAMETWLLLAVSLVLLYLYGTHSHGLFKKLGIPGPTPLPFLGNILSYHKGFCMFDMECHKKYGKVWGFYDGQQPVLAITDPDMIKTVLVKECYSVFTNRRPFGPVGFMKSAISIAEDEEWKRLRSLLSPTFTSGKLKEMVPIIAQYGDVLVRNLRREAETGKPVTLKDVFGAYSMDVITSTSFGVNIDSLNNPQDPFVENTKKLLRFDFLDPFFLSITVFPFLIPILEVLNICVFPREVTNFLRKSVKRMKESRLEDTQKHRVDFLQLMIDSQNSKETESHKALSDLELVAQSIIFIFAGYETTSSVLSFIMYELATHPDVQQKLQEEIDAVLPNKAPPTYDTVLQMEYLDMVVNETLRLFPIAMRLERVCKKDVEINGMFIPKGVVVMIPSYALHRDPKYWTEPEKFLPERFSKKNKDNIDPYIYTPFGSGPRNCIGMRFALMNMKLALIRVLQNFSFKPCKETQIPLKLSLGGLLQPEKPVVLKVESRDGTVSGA
Experimental: The CYP3A4 fluorescent MBI test is a test of investigating enhancement of CYP3A4 inhibition of the compound of the present invention by a metabolism reaction. 7-benzyloxytrifluoromethylcoumarin (7-BFC) is debenzylated by the CYP3A4 enzyme (enzyme expressed in Escherichia coli) and a metabolite, 7-hydroxytrifluoromethylcoumarin (7-HFC) which emits fluorescent light is produced. The test is performed using 7-HFC production reaction as an index.
The reaction conditions are as follows: substrate, […] 7-BFC; pre-reaction time, 0 or 30 minutes; reaction time, 15 minutes; reaction temperature, 25° C. […]
An enzyme in a K-Pi buffer (pH 7.4) and the compound of the present invention solution as a pre-reaction solution were added to a 96-well plate at the composition of the pre-reaction, a part of it was transferred to another 96-well plate so that it was 1/10 diluted by a substrate in a K-Pi buffer, NADPH as a co-factor was added to initiate a reaction as an index (without preincubation) and, after a predetermined time of a reaction, acetonitrile/0.5 mol/L Tris (trishydroxyaminomethane)=4/1 was added to stop the reaction. […] For the plate on which each index reaction had been performed, a fluorescent value of 7-HFC which is a metabolite was measured with a fluorescent plate reader. […]

[5] = Brain distribution studies; assay type: in vivo; settings: brain/plasma; rat, intravenous 0.5 mg/mL/kg, 30 minutes later; read-out: brain Kp value (area ratio brain/plasma)
Experimental: Compound of the present invention is intravenously administered to a rat at 0.5 mg/mL/kg dosage.
The brain is enucleated and 20-25% of homogenate thereof is prepared with distilled water.
The obtained blood is used as plasma after centrifuging. To the brain sample is added the control plasma at 1:1. To the plasma samples is added the control brains at 1:1. Each sample is measured using LC/MS/MS. The obtained area ratio (a brain/plasma) is used for the brain Kp value.

T1 sequence (P56817 46-501): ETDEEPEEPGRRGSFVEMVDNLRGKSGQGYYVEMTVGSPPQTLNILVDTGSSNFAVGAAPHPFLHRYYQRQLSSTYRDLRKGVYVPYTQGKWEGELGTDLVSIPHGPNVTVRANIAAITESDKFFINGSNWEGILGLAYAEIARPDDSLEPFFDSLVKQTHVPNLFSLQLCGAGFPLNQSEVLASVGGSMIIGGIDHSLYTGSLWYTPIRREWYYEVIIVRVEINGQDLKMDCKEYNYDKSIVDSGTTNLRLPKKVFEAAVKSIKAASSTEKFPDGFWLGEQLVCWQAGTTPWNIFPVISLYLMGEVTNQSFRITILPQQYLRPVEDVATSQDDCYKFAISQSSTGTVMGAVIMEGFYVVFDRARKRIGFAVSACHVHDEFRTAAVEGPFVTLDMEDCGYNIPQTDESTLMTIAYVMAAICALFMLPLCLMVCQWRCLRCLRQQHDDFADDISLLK

Row | Compound | pIC50 [1] | pIC50 [2] | solubility at 4 h [3] | CYP3A4 fluorescent MBI: difference between IC50 values without and with preincubation [4] | Kp at 0.5 h [5]
1 | C[C@@]1(c2cc(NC(=O)c3ccc(C#N)cn3)ccc2F)Cc2nccn2C(N)=N1 [Compound I-1] | ≥ 6.00 | ≥ 6.00 | > 40 µM | (−) (when the difference is 3 μM or less, this was defined as (−)) | 
2 | C[C@@]1(c2cc(NC(=O)c3ccc(C#N)cn3)ccc2F)Cc2ccnn2C(N)=N1 [Compound I-3] | 7.44 | 8.52 |  |  | 
3 | CC#Cc1cncc(-c2csc([C@]3(C)Cc4nccn4C(N)=N3)c2)c1 [Compound I-4] | ≥ 6.00 | ≥ 6.00 |  |  | 
4 | CC1(c2cc(NC(=O)c3ccc(C#N)cn3)ccc2F)Cc2cncn2C(N)=N1 (stereo not shown) [Compound I-6] | ≥ 6.00 | ≥ 6.00 |  |  | 
5 | CC1(c2cc(-c3cccnc3F)ccc2F)Cc2cncn2C(N)=N1 (stereo not shown) [Compound I-7] | ≥ 6.00 | ≥ 6.00 |  |  | 1.7

From patent US9018219B2, “Fused aminodihydropyrimidine derivative” (Shionogi & Co., Ltd., priority 2010, dated 2015)
